Measured values published in patent publication US12485169B2, “Compounds” (GREY WOLF THERAPEUTICS LIMITED, priority 2018, dated 2025).

Molecular target: T1, Purified ERAP1 (37-941)-10His (ERAP1) (Homo sapiens, UniProt Q9NZ08)
T1 construct: Purified ERAP1 (37-941)-10His (ERAP1)
Test: ERAP1 mediated hydrolysis of an amide substrate (10-mer inhibition assay), biochemical system
Conditions: 10-mer substrate, 23° C., 1 h, excitation 279 nm / emission 355 nm; read-out: IC50 vs Decapeptide WRVYEKC(Dnp)ALK-acid (where Dnp is Dinitrophenyl maleimide) (10-mer)

T1 sequence (Q9NZ08 37-941): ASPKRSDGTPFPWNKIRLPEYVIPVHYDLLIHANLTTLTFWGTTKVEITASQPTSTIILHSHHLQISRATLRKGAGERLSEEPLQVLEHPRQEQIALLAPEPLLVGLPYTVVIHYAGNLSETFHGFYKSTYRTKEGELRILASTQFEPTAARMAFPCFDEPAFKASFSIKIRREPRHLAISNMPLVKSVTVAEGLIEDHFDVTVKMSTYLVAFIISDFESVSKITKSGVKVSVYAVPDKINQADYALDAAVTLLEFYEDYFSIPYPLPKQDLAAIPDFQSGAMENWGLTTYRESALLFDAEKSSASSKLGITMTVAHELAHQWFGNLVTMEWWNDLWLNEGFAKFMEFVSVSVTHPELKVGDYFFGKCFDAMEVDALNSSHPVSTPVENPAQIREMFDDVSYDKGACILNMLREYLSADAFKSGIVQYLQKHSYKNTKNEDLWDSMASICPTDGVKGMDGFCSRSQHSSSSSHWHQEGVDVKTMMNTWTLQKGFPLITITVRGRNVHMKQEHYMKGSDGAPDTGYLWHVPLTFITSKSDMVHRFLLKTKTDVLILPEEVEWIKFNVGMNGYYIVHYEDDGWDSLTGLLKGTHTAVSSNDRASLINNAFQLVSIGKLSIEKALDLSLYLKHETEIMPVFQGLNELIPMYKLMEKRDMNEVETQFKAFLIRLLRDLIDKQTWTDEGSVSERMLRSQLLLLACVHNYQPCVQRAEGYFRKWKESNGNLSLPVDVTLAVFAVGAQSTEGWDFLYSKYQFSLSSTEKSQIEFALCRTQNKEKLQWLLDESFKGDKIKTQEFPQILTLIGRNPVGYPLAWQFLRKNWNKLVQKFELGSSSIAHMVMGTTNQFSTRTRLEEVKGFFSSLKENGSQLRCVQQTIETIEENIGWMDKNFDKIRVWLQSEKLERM

COc1ccc(C(=O)O)cc1S(=O)(=O)Nc1cc(Cl)ccc1N1CCC(F)(F)CC1 [Example 218, 3-(N-(5-chloro-2-(4,4-difluoropiperidin-1-yl)phenyl)sulfamoyl)-4-methoxybenzoic acid]
IC50: < 500 nM

CCc1ccc(C(=O)O)cc1S(=O)(=O)Nc1cc(S(C)(=O)=O)ccc1N1CCC[C@@H](O)C1 [Example 251, I-4-ethyl-3-(N-(2-(3-hydroxypiperidin-1-yl)-5-(methylsulfonyl)phenyl)sulfamoyl)benzoic acid]
IC50: < 500 nM

COc1ccc(C(=O)O)cc1S(=O)(=O)Nc1cc(C(F)(F)F)ccc1N1CCC(F)(F)CC1 [Example 12, 3-(N-(2-(4,4-difluoropiperidin-1-yl)-5-(trifluoromethyl)phenyl)sulfamoyl)-4-methoxybenzoic acid]
IC50: < 500 nM

COc1ccc(C(=O)O)cc1NS(=O)(=O)c1cc(C(F)(F)F)ccc1N(C)C [Example 51, 3-((2-(dimethylamino)-5-(trifluoromethyl)phenyl)sulfonamido)-4-methoxybenzoic acid]
IC50: < 500 nM

COc1ccc(C(=O)O)cc1S(=O)(=O)Nc1cc(-n2cnnn2)ccc1N1CCC[C@@H](F)C1 [Example 265, I-3-(N-(2-(3-fluoropiperidin-1-yl)-5-(tetrazol-1-yl)phenyl)sulfamoyl)-4-methoxybenzoic acid]
IC50: < 500 nM

CCc1ccc(C(=O)O)cc1S(=O)(=O)Nc1cc(-c2cnn(C)c2)ccc1N1CCCCC1 [Example 277, 4-ethyl-3-(N-(5-(1-methylpyrazol-4-yl)-2-(piperidin-1-yl)phenyl)sulfamoyl)benzoic acid]
IC50: < 500 nM

COc1ccc(C(=O)O)cc1S(=O)(=O)Nc1cc(Cl)ccc1N1CCCC(F)(F)C1 [Example 219, 3-(N-(5-chloro-2-(3,3-difluoropiperidin-1-yl)phenyl)sulfamoyl)-4-methoxybenzoic acid]
IC50: < 500 nM

CCc1ccc(C(=O)O)cc1S(=O)(=O)Nc1cc(C#N)ccc1N1CCCC(O)C1 (stereo not shown) [Example 224, 3-(N-(5-cyano-2-(3-hydroxypiperidin-1-yl)phenyl)sulfamoyl)-4-ethylbenzoic acid]
IC50: < 500 nM

CCc1ccc(C(=O)O)cc1S(=O)(=O)Nc1cc(-c2nnc(C)o2)ccc1N1CCCCC1 [Example 292, 4-ethyl-3-(N-(5-(5-methyl-1,3,4-oxadiazol-2-yl)-2-(piperidin-1-yl)phenyl)sulfamoyl)benzoic acid]
IC50: < 500 nM

N#Cc1ccc(N2CCCCC2)c(NS(=O)(=O)c2cc(C(=O)O)ccc2C2CCC2)c1 [Example 330, 3-(N-(5-cyano-2-(piperidin-1-yl)phenyl)sulfamoyl)-4-cyclobutylbenzoic acid]
IC50: < 500 nM

O=C(O)c1ccc(C2CC2)c(S(=O)(=O)Nc2cc(-n3cnnn3)c(Cl)cc2N2CCCCC2)c1 [Example 334, 3-(N-(4-chloro-2-(piperidin-1-yl)-5-(tetrazol-1-yl)phenyl)sulfamoyl)-4-cyclopropylbenzoic acid]
IC50: < 500 nM

COc1ccc(C(=O)O)cc1S(=O)(=O)Nc1cc(C(F)(F)F)ccc1N1CC(C)(OC)C1 [Example 22, 4-methoxy-3-(N-(2-(3-methoxy-3-methylazetidin-1-yl)-5-(trifluoromethyl)phenyl)sulfamoyl)benzoic acid]
IC50: > 5000 nM

CS(=O)(=O)c1cc(NS(=O)(=O)c2cc(C(=O)O)ccc2C2CC2)c(N2CCCCC2)cc1F [Example 331, 4-cyclopropyl-3-(N-(4-fluoro-5-(methylsulfonyl)-2-(piperidin-1-yl)phenyl)sulfamoyl)benzoic acid]
IC50: < 500 nM
